# Data from patent US8080529B2, “Macrolides with anti-inflammatory activity” (Glaxo Group Limited, priority 2005, dated 2011).
# Read-outs that look alike come from different tables or passages of the source.
# What was measured:
# [1] = tested on: IL-6; experiment: Inhibition of IL-6 production by stimulated human peripheral blood leukocytes in vitro; format: cell-based; conditions: for inhibition at 10 µM / inhibition at 50 µM: Homo sapiens, Leukocyte, read-out: Percentage of inhibition of IL-6 production
# Method in brief: (§1)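 Values are percentage inhibition of cytokine release versus stimulated leukocytes lacking compound. Human blood leukocytes received 50 μM or 10 μM compound for 2 h before overnight LPS, PMA or zymosan stimulation, and supernatants were assayed by ELISA.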
# [2] = tested on: Hep G2; experiment: Cytotoxicity assay (MTT), Hep G2 cell line; format: cell-based; conditions: 24 h
# Method in brief: (§2)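 Viability was read as MTT-formazan absorbance at 490 nm after 0.5-2 h with reagent. This followed 24 h compound exposure (50 μM, 12.5 μM) at 37° C in RPM medium. Result expressed as OD490 treated over untreated cells ×100.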
# [3] = tested on: IL-1α; experiment: Inhibition of IL-1 production by stimulated human peripheral blood leukocytes in vitro; format: cell-based; conditions: for inhibition at 10 µM / inhibition at 50 µM: Homo sapiens, Leukocyte, read-out: Percentage of inhibition of IL-1α production
# [4] = tested on: A549; experiment: Cytotoxicity assay (MTT), A549 cell line; format: cell-based; conditions: 24 h
# Method in brief: as §2
# [5] = tested on: TNF-α; experiment: Inhibition of TNF-α production by stimulated human peripheral blood leukocytes in vitro; format: cell-based; conditions: for inhibition at 10 µM / inhibition at 50 µM: Homo sapiens, Leukocyte, read-out: Percentage of inhibition of TNF-α production
# Method in brief: as §1
# [6] = tested on: IL-8; experiment: Inhibition of IL-8 production by stimulated human peripheral blood leukocytes in vitro; format: cell-based; conditions: for inhibition at 10 µM / inhibition at 50 µM: Homo sapiens, Leukocyte, read-out: Percentage of inhibition of IL-8 production
# Method in brief: as §1
# [7] = tested on: human peripheral blood mononuclear cells (PBMC); experiment: Effects on human T-cell proliferation in vitro (3H-thymidine incorporation); format: cell-based; conditions: for inhibition at 10 µM / inhibition at 50 µM: Homo sapiens, PBMC, read-out: Percentage of inhibition of proliferation of stimulated PBMC
# Protocol: The influence of the various test compounds at two different concentrations (50 μM and 10 μM) on cell proliferation of human peripheral blood mononuclear cells (PBMC) was assessed. […] The cells were pulsed with 1 μCi of ^3H-thymidine (Amersham, USA) per well during the last 18 h of the culture, and were harvested on the 96-well filter (Packard Bioscience, USA) using a multiple cell harvester (Packard, USA). The incorporation of ^3H-thymidine in activated cells were measured using TopCount NXT (Packard, USA). […] The positive control refers to LPS-, PMA- or zymosan-stimulated samples that were not treated with test compounds.
# [8] = tested on: TNF-α; experiment: Lipopolysaccharide induced TNF-α production in Balb/cJ mice; format: in vivo; conditions: 10 mg/kg intraperitoneally, 30 min before LPS; 90 min after LPS
# Protocol: Male Balb/cJ mice (Iffa Credo, France) weighing 25-33 g were randomly grouped (n=7 in test group, 7 in positive control group, 4 in negative control group). Test compounds, as well as vehicle [0.125% carboxymethyl-cellulose (Sigma, USA)], were administered to the mice intraperitoneally. Test compounds were administered at a dose of 10 mg/kg of body weight, in a volume of 10 mL/kg of body weight. Thirty minutes later, a sterile solution of lipopolysaccharide (LPS) (Sigma, USA) in saline was intraperitoneally administered at a concentration and volume of 25 μg/0.2 mL/mouse to each animal, except those in negative control. Ninety minutes following administration, all animals were sacrificed by puncturing a. carotis communis. The plasma concentration of TNF-α was determined by sandwich ELISA, using capture and detection antibodies (R&D, USA) according to manufacturer's recommendations. Results are presented in the following table as percent of inhibition of TNF-α production in comparison to the positive control (stimulated, but untreated animals).
structure (smiles),measurement,setting,value
"CC[C@H]1OC(=O)[C@H](C)[C@@H](O[C@H]2C[C@@](C)(OC)[C@@H](OC(=O)CCN(CC)CC)[C@H](C)O2)[C@H](C)[C@@H](O[C@@H]2O[C@H](C)C[C@H](N(C)C)[C@H]2O)[C@](C)(OC)C[C@@H](C)NC(=O)[C@H](C)[C@@H](O)[C@]1(C)O [Example 3, 4″-O-(3-Diethylamino-Propionyl)-6-O-methyl-8a-aza-8a-homoerythromycin A]",inhibition at 10 µM,"[1]; 10 μM, LPS-stimulated PBL",56%
same,inhibition at 10 µM,"[1]; 10 μM, PMA-stimulated PBL",60%
same,inhibition at 10 µM,"[1]; 10 μM, zymosan-stimulated PBL",44%
same,inhibition at 50 µM,"[1]; 50 μM, LPS-stimulated PBL",78%
same,inhibition at 50 µM,"[1]; 50 μM, PMA-stimulated PBL",66%
same,inhibition at 50 µM,"[1]; 50 μM, zymosan-stimulated PBL",74%
same,Percentage of inhibition of cell growth,[2]; 12.5 μM,0%
same,Percentage of inhibition of cell growth,[2]; 50 μM,0%
same,inhibition at 10 µM,"[3]; 10 μM, LPS-stimulated PBL",87%
same,inhibition at 10 µM,"[3]; 10 μM, PMA-stimulated PBL",73%
same,inhibition at 10 µM,"[3]; 10 μM, zymosan-stimulated PBL",88%
same,inhibition at 50 µM,"[3]; 50 μM, LPS-stimulated PBL",86%
same,inhibition at 50 µM,"[3]; 50 μM, PMA-stimulated PBL",68%
same,inhibition at 50 µM,"[3]; 50 μM, zymosan-stimulated PBL",91%
same,Percentage of inhibition of cell growth,[4]; 12.5 μM,0%
same,Percentage of inhibition of cell growth,[4]; 50 μM,0%
same,inhibition at 10 µM,"[5]; 10 μM, LPS-stimulated PBL",72%
same,inhibition at 10 µM,"[5]; 10 μM, PMA-stimulated PBL",91%
same,inhibition at 10 µM,"[5]; 10 μM, zymosan-stimulated PBL",76%
same,inhibition at 50 µM,"[5]; 50 μM, LPS-stimulated PBL",81%
same,inhibition at 50 µM,"[5]; 50 μM, PMA-stimulated PBL",83%
same,inhibition at 50 µM,"[5]; 50 μM, zymosan-stimulated PBL",96%
same,inhibition at 10 µM,"[6]; 10 μM, LPS-stimulated PBL",48%
same,inhibition at 10 µM,"[6]; 10 μM, PMA-stimulated PBL",30%
same,inhibition at 10 µM,"[6]; 10 μM, zymosan-stimulated PBL",32%
same,inhibition at 50 µM,"[6]; 50 μM, LPS-stimulated PBL",71%
same,inhibition at 50 µM,"[6]; 50 μM, PMA-stimulated PBL",22%
same,inhibition at 50 µM,"[6]; 50 μM, zymosan-stimulated PBL",16%
same,inhibition at 10 µM,"[7]; PHA, 10 μM",2%
same,inhibition at 50 µM,"[7]; PHA, 50 μM",75%
same,inhibition at 10 µM,"[7]; PMA + iono., 10 μM",17%
same,inhibition at 50 µM,"[7]; PMA + iono., 50 μM",81%
"CCC1OC(=O)C(C)C(OC2CC(C)(OC)C(OC(=O)CCN(CC)CC)C(C)O2)C(C)C(OC2OC(C)CC(N(C)C)C2O)C(C)(OC)CC(C)C(=O)NC(C)C(O)C1(C)O (stereo not drawn) [Example 8, 4″-O-(3-Diethylamino-propionyl)-6-O-methyl-9a-aza-9a-homoerythromycin A]",% inhibition of TNF-α production (plasma),[8],93%
same,Percentage of inhibition of IL-6 production,"[1]; 10 μM, LPS-stimulated PBL",16%
same,Percentage of inhibition of IL-6 production,"[1]; 10 μM, PMA-stimulated PBL",24%
same,Percentage of inhibition of IL-6 production,"[1]; 10 μM, zymosan-stimulated PBL",57%
same,Percentage of inhibition of IL-6 production,"[1]; 50 μM, LPS-stimulated PBL",63%
same,Percentage of inhibition of IL-6 production,"[1]; 50 μM, PMA-stimulated PBL",100%
same,Percentage of inhibition of IL-6 production,"[1]; 50 μM, zymosan-stimulated PBL",80%
same,Percentage of inhibition of IL-1α production,"[3]; 10 μM, LPS-stimulated PBL",66%
same,Percentage of inhibition of IL-1α production,"[3]; 10 μM, PMA-stimulated PBL",71%
same,Percentage of inhibition of IL-1α production,"[3]; 10 μM, zymosan-stimulated PBL",86%
same,Percentage of inhibition of IL-1α production,"[3]; 50 μM, LPS-stimulated PBL",83%
same,Percentage of inhibition of IL-1α production,"[3]; 50 μM, PMA-stimulated PBL",86%
same,Percentage of inhibition of IL-1α production,"[3]; 50 μM, zymosan-stimulated PBL",94%
same,Percentage of inhibition of TNF-α production,"[5]; 10 μM, LPS-stimulated PBL",51%
same,Percentage of inhibition of TNF-α production,"[5]; 10 μM, PMA-stimulated PBL",46%
same,Percentage of inhibition of TNF-α production,"[5]; 10 μM, zymosan-stimulated PBL",87%
same,Percentage of inhibition of TNF-α production,"[5]; 50 μM, LPS-stimulated PBL",85%
same,Percentage of inhibition of TNF-α production,"[5]; 50 μM, PMA-stimulated PBL",87%
same,Percentage of inhibition of TNF-α production,"[5]; 50 μM, zymosan-stimulated PBL",92%
same,Percentage of inhibition of IL-8 production,"[6]; 10 μM, LPS-stimulated PBL",38%
same,Percentage of inhibition of IL-8 production,"[6]; 10 μM, PMA-stimulated PBL",40%
same,Percentage of inhibition of IL-8 production,"[6]; 10 μM, zymosan-stimulated PBL",31%
same,Percentage of inhibition of IL-8 production,"[6]; 50 μM, LPS-stimulated PBL",79%
same,Percentage of inhibition of IL-8 production,"[6]; 50 μM, PMA-stimulated PBL",89%
same,Percentage of inhibition of IL-8 production,"[6]; 50 μM, zymosan-stimulated PBL",88%
same,Percentage of inhibition of proliferation of stimulated PBMC,"[7]; PHA, 10 μM",96%
same,Percentage of inhibition of proliferation of stimulated PBMC,"[7]; PHA, 50 μM",100%
same,Percentage of inhibition of proliferation of stimulated PBMC,"[7]; PMA + iono., 10 μM",37%
same,Percentage of inhibition of proliferation of stimulated PBMC,"[7]; PMA + iono., 50 μM",99%
"CC[C@H]1OC(=O)[C@H](C)[C@@H](O[C@H]2C[C@@](C)(OC)[C@@H](OC(=O)CCN(CC)CC)[C@H](C)O2)[C@H](C)[C@@H](O[C@@H]2O[C@H](C)C[C@H](N(C)C)[C@H]2O)[C@](C)(OC)C[C@@H](C)C(=O)[C@H](C)[C@H]2NC(=O)O[C@@]21C [Example 9, 11,12-Carbamate-11,12-dideoxy-4″-O-(3-diethylamino-propionyl)-6-O-methyl-erythromycin A]",inhibition at 10 µM,"[1]; 10 μM, LPS-stimulated PBL",22%
same,inhibition at 10 µM,"[1]; 10 μM, PMA-stimulated PBL",30%
same,inhibition at 10 µM,"[1]; 10 μM, zymosan-stimulated PBL",0%
same,inhibition at 50 µM,"[1]; 50 μM, LPS-stimulated PBL",100%
same,inhibition at 50 µM,"[1]; 50 μM, PMA-stimulated PBL",95%
same,inhibition at 50 µM,"[1]; 50 μM, zymosan-stimulated PBL",100%
same,Percentage of inhibition of cell growth,[2]; 12.5 μM,4%
same,Percentage of inhibition of cell growth,[2]; 50 μM,15%
same,inhibition at 10 µM,"[3]; 10 μM, LPS-stimulated PBL",72%
same,inhibition at 10 µM,"[3]; 10 μM, PMA-stimulated PBL",69%
same,inhibition at 10 µM,"[3]; 10 μM, zymosan-stimulated PBL",82%
same,inhibition at 50 µM,"[3]; 50 μM, LPS-stimulated PBL",82%
same,inhibition at 50 µM,"[3]; 50 μM, PMA-stimulated PBL",72%
same,inhibition at 50 µM,"[3]; 50 μM, zymosan-stimulated PBL",0%
same,Percentage of inhibition of cell growth,[4]; 12.5 μM,0%
same,Percentage of inhibition of cell growth,[4]; 50 μM,0%
same,inhibition at 10 µM,"[5]; 10 μM, LPS-stimulated PBL",73%
same,inhibition at 10 µM,"[5]; 10 μM, PMA-stimulated PBL",93%
same,inhibition at 10 µM,"[5]; 10 μM, zymosan-stimulated PBL",14%
same,inhibition at 50 µM,"[5]; 50 μM, LPS-stimulated PBL",96%
same,inhibition at 50 µM,"[5]; 50 μM, PMA-stimulated PBL",85%
same,inhibition at 50 µM,"[5]; 50 μM, zymosan-stimulated PBL",72%
same,inhibition at 10 µM,"[6]; 10 μM, LPS-stimulated PBL",18%
same,inhibition at 10 µM,"[6]; 10 μM, PMA-stimulated PBL",0%
same,inhibition at 10 µM,"[6]; 10 μM, zymosan-stimulated PBL",0%
same,inhibition at 50 µM,"[6]; 50 μM, LPS-stimulated PBL",96%
same,inhibition at 50 µM,"[6]; 50 μM, PMA-stimulated PBL",94%
same,inhibition at 50 µM,"[6]; 50 μM, zymosan-stimulated PBL",91%
same,inhibition at 10 µM,"[7]; PHA, 10 μM",91%
same,inhibition at 50 µM,"[7]; PHA, 50 μM",100%
same,inhibition at 10 µM,"[7]; PMA + iono., 10 μM",17%
same,inhibition at 50 µM,"[7]; PMA + iono., 50 μM",100%
